From PubChem BioAssay AID330 (DTP/NCI, 2004)
Several values for one entry are separate records, joined by “and”; a condition that tells them apart may be missing. Equal values may be shown once. Toxic doses and inconclusive results are not listed.

System: P388 leukemia ip, CD2F1 mice, survival T/C
Assay: NCI In Vivo Anticancer Drug Screen. Data for tumor model P388 Leukemia (intraperitoneal) in CD2F1 (CDF1) mice
Conditions: endpoint: median survival time, higher = longer survival
How it was run: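 Mice carrying the transplanted tumor received test compound or vehicle. Survival was recorded in each group, and the value is the treated-group measurement divided by that of the vehicle-treated control group.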

[1] = dose: 25.0 mg/kg/injection, schedule: Q01DX009 (ip), vehicle: saline with Tween-80
[2] = dose: 50.0 mg/kg/injection, schedule: Q01DX009 (ip), vehicle: saline with Tween-80
[3] = dose: 100.0 mg/kg/injection, schedule: Q01DX009 (ip), vehicle: saline with Tween-80
[4] = dose: 200.0 mg/kg/injection, schedule: Q01DX009 (ip), vehicle: saline with Tween-80
[5] = dose: 60.0 mg/kg/injection, schedule: Q01DX005 (ip), vehicle: saline with Tween-80
[6] = dose: 120.0 mg/kg/injection, schedule: Q01DX005 (ip), vehicle: saline with Tween-80
[7] = dose: 240.0 mg/kg/injection, schedule: Q01DX005 (ip), vehicle: saline with Tween-80
[8] = dose: 100.0 mg/kg/injection, schedule: Q01DX009 (ip), vehicle: Klucel (hydroxypropylcellulose) (HPC)
[9] = dose: 60.0 mg/kg/injection, schedule: Q01DX005 (ip), vehicle: Klucel (hydroxypropylcellulose) (HPC)
[10] = dose: 120.0 mg/kg/injection, schedule: Q01DX005 (ip), vehicle: Klucel (hydroxypropylcellulose) (HPC)
[11] = dose: 240.0 mg/kg/injection, schedule: Q01DX005 (ip), vehicle: Klucel (hydroxypropylcellulose) (HPC)

`O=C(O)c1cn2cccnc2n1` was tested, and the T/C (dose: 100.0 mg/kg/injection, schedule: Q01DX001 (ip), vehicle: Klucel (hydroxypropylcellulose) (HPC)) was 100 % of control, the T/C (dose: 200.0 mg/kg/injection, schedule: Q01DX001 (ip), vehicle: Klucel (hydroxypropylcellulose) (HPC)) was 98 % of control and the T/C (dose: 400.0 mg/kg/injection, schedule: Q01DX001 (ip), vehicle: Klucel (hydroxypropylcellulose) (HPC)) was 99 % of control.
For `CCCCCCCCCCCCCCC[N+]1(CC)CCCC1`, the T/C (dose: 0.78 mg/kg/injection, schedule: Q01DX009 (ip), vehicle: saline) was 108 % of control, the T/C (dose: 1.56 mg/kg/injection, schedule: Q01DX009 (ip), vehicle: saline) was 114 % of control and the T/C (dose: 3.12 mg/kg/injection, schedule: Q01DX009 (ip), vehicle: saline) was 114 % of control.
`COc1ccc(/C=C/c2nc(Nc3ccc(OC)cc3)c3ccccc3n2)cc1` was tested, and the T/C (dose: 50.0 mg/kg/injection, schedule: Q01DX009 (ip), vehicle: acetone) was 98 % of control, the T/C (dose: 100.0 mg/kg/injection, schedule: Q01DX009 (ip), vehicle: acetone) was 91 % of control and the T/C (dose: 200.0 mg/kg/injection, schedule: Q01DX009 (ip), vehicle: acetone) was 99 % of control.
`CC(=O)OC1(CSc2ccccc2)CCCCC1` was tested, and the T/C [1] was 89 % of control, the T/C [2] was 101 % of control and 102 % of control and the T/C [3] was 104 % of control and 109 % of control. For the same molecule, the T/C [4] was 108 % of control and 111 % of control and the T/C (dose: 400.0 mg/kg/injection, schedule: Q01DX009 (ip), vehicle: saline with Tween-80) was 111 % of control.
In the case of `O=C1c2cc([N+](=O)[O-])ccc2-c2c(N=Cc3ccc4c(c3)OCO4)cccc21`, the T/C [5] is reported as 90 % of control, the T/C [6] is reported as 91 % of control and the T/C [7] is reported as 99 % of control.
`Nc1nnc2nc(C(C(=O)c3ccc(Cl)cc3Cl)c3nc4nnc(N)n4[nH]c3=O)c(=O)[nH]n12` was tested, and the T/C (dose: 50.0 mg/kg/injection, schedule: Q01DX005 (ip), vehicle: saline with Tween-80) was 92 % of control, the T/C (dose: 100.0 mg/kg/injection, schedule: Q01DX005 (ip), vehicle: saline with Tween-80) was 100 % of control and the T/C (dose: 200.0 mg/kg/injection, schedule: Q01DX005 (ip), vehicle: saline with Tween-80) was 100 % of control.
`Fc1ccc(NC(=S)SCc2ccc(Cl)c(Cl)c2)cc1F` was tested, and the T/C (dose: 12.5 mg/kg/injection, schedule: Q01DX009 (ip), vehicle: Klucel (hydroxypropylcellulose) (HPC)) was 124 % of control and the T/C [8] was 116 % of control and 96 % of control.
With `CC(C)(C)OOC(=O)/C=C/c1ccccc1` the T/C [5] was 101 % of control, the T/C [6] was 108 % of control and the T/C [7] was 92 % of control.
With `Cc1ccc(-c2sc3ccccc3c(=O)c2CCl)cc1CO` the T/C [5] was 100 % of control, the T/C [6] was 95 % of control and the T/C [7] was 90 % of control.
`CCN1C(=O)CC(SC2CC(=O)N(CC)C2=O)C1=O` (centres undefined) was tested, and the T/C (dose: 50.0 mg/kg/injection, schedule: Q01DX005 (ip), vehicle: Klucel (hydroxypropylcellulose) (HPC)) was 99 % of control, the T/C (dose: 100.0 mg/kg/injection, schedule: Q01DX005 (ip), vehicle: Klucel (hydroxypropylcellulose) (HPC)) was 95 % of control and the T/C (dose: 200.0 mg/kg/injection, schedule: Q01DX005 (ip), vehicle: Klucel (hydroxypropylcellulose) (HPC)) was 99 % of control.
In the case of `O=[N+]([O-])c1ccccc1S(=O)(=O)N(CCCCN(S(=O)(=O)c1ccccc1[N+](=O)[O-])S(=O)(=O)c1ccccc1[N+](=O)[O-])S(=O)(=O)c1ccccc1[N+](=O)[O-]`, the T/C [5] is reported as 93 % of control, the T/C [6] is reported as 91 % of control and the T/C [7] is reported as 87 % of control.
`C/C(=N/NC(N)=O)c1cn[nH]c1C` was tested, and the T/C [9] was 117 % of control and the T/C [10] was 124 % of control.
`COc1ccc(/C=C\C(=O)c2ccc(C(=O)/C=C/c3ccc(OC)cc3OC)cc2)c(OC)c1` was tested, and the T/C (dose: 12.5 mg/kg/injection, schedule: Q04DX003 (ip), vehicle: saline with Tween-80) was 100 % of control, the T/C (dose: 25.0 mg/kg/injection, schedule: Q04DX003 (ip), vehicle: saline with Tween-80) was 102 % of control and the T/C (dose: 50.0 mg/kg/injection, schedule: Q04DX003 (ip), vehicle: saline with Tween-80) was 92 % of control.
With `O=C(Nc1ccc(NC(=O)c2ccc(C3=NCCCN3)cc2)cc1)Nc1ccc(C2=NCCCN2)cc1` the T/C (dose: 10.0 mg/kg/injection, schedule: Q01DX009 (ip), vehicle: saline with Tween-80) was 163 % of control, the T/C (dose: 10.0 mg/kg/injection, schedule: Q01DX009 (ip), vehicle: saline) was 113 % of control and the T/C (dose: 20.0 mg/kg/injection, schedule: Q01DX009 (ip), vehicle: saline) was 159 % of control.
For `CSc1nc(NN)c2cnn(C3CCCCO3)c2n1` (centres undefined), the T/C (dose: 100.0 mg/kg/injection, schedule: Q04DX002 (ip), vehicle: saline with Tween-80) was 100 % of control, the T/C (dose: 200.0 mg/kg/injection, schedule: Q04DX002 (ip), vehicle: saline with Tween-80) was 96 % of control and the T/C (dose: 400.0 mg/kg/injection, schedule: Q04DX002 (ip), vehicle: saline with Tween-80) was 94 % of control.
`CC(CCc1cccc2ccccc12)(C(=O)O)C(=O)O` was tested, and the T/C (dose: 50.0 mg/kg/injection, schedule: Q01DX009 (ip), vehicle: saline sonified) was 90 % of control, the T/C (dose: 100.0 mg/kg/injection, schedule: Q01DX009 (ip), vehicle: saline sonified) was 100 % of control and the T/C (dose: 200.0 mg/kg/injection, schedule: Q01DX009 (ip), vehicle: saline sonified) was 90 % of control.
With `CC(C)(C)OC(=O)CS(=O)Nc1ccccc1O` (centres undefined) the T/C [9] was 105 % of control, the T/C [10] was 108 % of control and the T/C [11] was 97 % of control.
In the case of `COc1ccc(S(=O)(=O)N=N/C=C2\C=CC=CN2O)cc1OC`, the T/C (dose: 1.56 mg/kg/injection, schedule: Q01DX009 (ip), vehicle: saline with Tween-80) is reported as 104 % of control, the T/C (dose: 3.12 mg/kg/injection, schedule: Q01DX009 (ip), vehicle: saline with Tween-80) is reported as 103 % of control and the T/C (dose: 6.25 mg/kg/injection, schedule: Q01DX009 (ip), vehicle: saline with Tween-80) is reported as 103 % of control. The T/C (dose: 12.5 mg/kg/injection, schedule: Q01DX009 (ip), vehicle: saline with Tween-80) was 100 % of control and 103 % of control and 90 % of control, the T/C (dose: 25.0 mg/kg/injection, schedule: Q01DX001 (ip), vehicle: saline with Tween-80) was 100 % of control and the T/C [1] was 110 % of control and 114 % of control and 117 % of control. The T/C (dose: 50.0 mg/kg/injection, schedule: Q01DX001 (ip), vehicle: saline with Tween-80) was 109 % of control, the T/C [2] was 119 % of control and the T/C (dose: 100.0 mg/kg/injection, schedule: Q01DX001 (ip), vehicle: saline with Tween-80) was 118 % of control.
For `Cc1cc2c(cc1C)NC1C(=O)C(c3ccc(Cl)c(Cl)c3)OC1=N2` (centres undefined), the T/C (dose: 30.0 mg/kg/injection, schedule: Q01DX005 (ip), vehicle: Klucel (hydroxypropylcellulose) (HPC)) was 91 % of control, the T/C [9] was 91 % of control and the T/C [10] was 93 % of control. The T/C [11] was 86 % of control.
For `CN1CCN(CN2C(=O)NC(c3ccccc3)(c3ccccc3)C2=O)CC1`, the T/C [9] was 90 % of control, the T/C [10] was 107 % of control and the T/C [11] was 98 % of control.
With `CN1CC(C2(O)CCN(C)C2=O)C(O)C1=O` (centres undefined) the T/C (dose: 100.0 mg/kg/injection, schedule: Q01DX001 (ip), vehicle: saline) was 104 % of control and the T/C (dose: 200.0 mg/kg/injection, schedule: Q01DX001 (ip), vehicle: saline) was 97 % of control.
For `CS(=O)(=O)Nc1nc2ccccc2c(=O)o1`, the T/C [9] was 107 % of control, the T/C [10] was 102 % of control and the T/C [11] was 99 % of control.
For `Cc1cc(=NCCCN(C)C)c2ccc3c(ccc4c(=NCCCN(C)C)cc(C)n(O)c43)c2n1O`, the T/C (dose: 6.25 mg/kg/injection, schedule: Q01DX009 (ip), vehicle: water) was 106 % of control and 111 % of control, the T/C (dose: 12.5 mg/kg/injection, schedule: Q01DX009 (ip), vehicle: distilled water + alcohol) was 102 % of control and the T/C (dose: 12.5 mg/kg/injection, schedule: Q01DX009 (ip), vehicle: water) was 100 % of control and 103 % of control and 109 % of control. The T/C (dose: 25.0 mg/kg/injection, schedule: Q01DX009 (ip), vehicle: distilled water + alcohol) was 102 % of control, the T/C (dose: 25.0 mg/kg/injection, schedule: Q01DX009 (ip), vehicle: water) was 108 % of control and 116 % of control and the T/C (dose: 50.0 mg/kg/injection, schedule: Q01DX009 (ip), vehicle: distilled water + alcohol) was 105 % of control.
For `NC1=C(Cl)C(=O)C(N)=C(Cl)C1=O`, the T/C [1] was 113 % of control, the T/C (dose: 50.0 mg/kg/injection, schedule: Q01DX009 (ip), vehicle: Klucel (hydroxypropylcellulose) (HPC)) was 100 % of control and the T/C [2] was 100 % of control. For the same molecule, the T/C [8] was 103 % of control, the T/C [3] was 100 % of control and the T/C (dose: 200.0 mg/kg/injection, schedule: Q01DX009 (ip), vehicle: Klucel (hydroxypropylcellulose) (HPC)) was 105 % of control. For the same molecule, the T/C [4] was 94 % of control and the T/C (dose: 400.0 mg/kg/injection, schedule: Q01DX009 (ip), vehicle: Klucel (hydroxypropylcellulose) (HPC)) was 99 % of control.
`CN(CCO)c1n[nH]c(=O)c2ccccc12` was tested, and the T/C [2] was 109 % of control, the T/C [3] was 101 % of control and the T/C [4] was 101 % of control.
